# US20240246967A1, “AXL COMPOUNDS” (ARCUS BIOSCIENCES, INC., priority 2021, published 2024)
# Target: T1, human MER (Homo sapiens, UniProt Q12866)
# T1 construct: purchased Invitrogen
# T1 sequence (Q12866 21-999): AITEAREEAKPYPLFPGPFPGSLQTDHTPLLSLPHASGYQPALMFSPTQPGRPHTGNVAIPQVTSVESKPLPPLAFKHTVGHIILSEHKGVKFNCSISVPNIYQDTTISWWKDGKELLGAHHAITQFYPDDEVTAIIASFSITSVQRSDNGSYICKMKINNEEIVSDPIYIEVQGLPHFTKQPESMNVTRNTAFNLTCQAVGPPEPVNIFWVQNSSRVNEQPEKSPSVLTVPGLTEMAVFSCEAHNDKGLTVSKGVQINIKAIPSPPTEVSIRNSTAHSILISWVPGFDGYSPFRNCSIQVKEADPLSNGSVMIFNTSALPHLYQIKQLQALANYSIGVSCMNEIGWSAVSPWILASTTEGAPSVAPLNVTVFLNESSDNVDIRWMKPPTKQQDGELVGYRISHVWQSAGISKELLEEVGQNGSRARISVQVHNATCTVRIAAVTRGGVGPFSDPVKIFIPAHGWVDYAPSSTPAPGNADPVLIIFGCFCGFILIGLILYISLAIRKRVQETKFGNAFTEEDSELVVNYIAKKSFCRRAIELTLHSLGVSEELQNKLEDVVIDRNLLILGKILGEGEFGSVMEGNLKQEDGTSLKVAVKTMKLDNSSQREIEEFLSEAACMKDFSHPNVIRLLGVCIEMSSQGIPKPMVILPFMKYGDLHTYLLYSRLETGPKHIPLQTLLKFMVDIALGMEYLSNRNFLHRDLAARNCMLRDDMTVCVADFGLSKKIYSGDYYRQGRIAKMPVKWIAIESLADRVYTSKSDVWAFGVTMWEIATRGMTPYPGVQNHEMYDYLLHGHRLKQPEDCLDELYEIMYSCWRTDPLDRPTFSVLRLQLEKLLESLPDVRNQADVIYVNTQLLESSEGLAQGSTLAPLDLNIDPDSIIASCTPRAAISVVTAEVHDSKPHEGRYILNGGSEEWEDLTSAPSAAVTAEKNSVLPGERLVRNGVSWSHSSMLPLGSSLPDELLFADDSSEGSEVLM
# Assay: HTRF KinEASE-TK biochemical potency assay, MER
# Conditions: 1 nM MER, 700 μM ATP, 800 nM TK Substrate-biotin
# Experimental: Purified recombinant human AXL, TYRO3 and MER proteins were purchased from Invitrogen™. 10 nM AXL, 2 nM TYRO3 or MER were incubated with varying concentrations of compounds in 50 mM HEPES, pH 7.4, 10 mM MgCl2, 0.01% BSA, 1 mM DTT and 2% DMSO in a total volume of 20 μl in a 384-well microplate (Corning™ #3640) at RT for 1 h. The AXL, TYRO3 and MER enzymatic reaction was initiated by transferring 10 μl of enzyme and compound mixture into 10 μl of 1.6 μM TK Substrate-biotin (HTRF® KinEASE-TK kit, Cisbio) and 1400 μM ATP pre-incubated in 50 mM HEPES, pH 7.4, 10 mM MgCl2, 0.01% BSA, 1 mM DTT in a 384-well microplate (Corning™ #3640) at RT, giving the final reaction conditions: 5 nM AXL, 1 nM TYRO3 or MER, 800 nM TK Substrate-biotin and 700 μM ATP in 50 mM HEPES, pH 7.4, 10 mM MgCl2, 0.01% BSA, 1 mM DTT and 1% DMSO with varying concentrations of compounds. Following 2 h incubation at RT, the AXL, TYRO3 and MER enzymatic reaction was stopped by transfer of 10 μl of reaction into 10 μl of detection mix (400 nM Streptavidin-XL665, 200-fold dilution TK Antibody-Cryptate and detection buffer, HTRF® KinEASE-TK kit, Cisbio) in a white 384-well microplate (Perkin Elmer, OptiPlate 384). After 1 h incubation at RT, the plate was put into a plate reader (Evision) to read at 665/620 nm (acceptor/donor) for HTRF. The value of the DMSO blank (MIN inhibition=100% activity) was used as a negative control. The positive control was established by adding 5 μl of enzyme and DMSO mixture into 10 μl of detection mix followed by addition of 5 μl of TK Substrate-biotin and ATP mixture (MAX inhibition=0% activity). To calculate the percent activity, Equation 1 was used. Ratio 665/620 is the value at a given compound concentration: […]
row,IC50 [nM],SMILES
1,> 1000,"O=C([C@@H]1CCCN1)N1CCc2ccc(-c3cnc4[nH]nc(-c5ccc(S(=O)(=O)C6CC6)cc5)c4c3)cc2CC1 [Example 112, 7-{3-[4-(Cyclopropanesulfonyl)phenyl]-1H-pyrazolo[3,4-b]pyridin-5-yl}-3-[(2S)-pyrrolidine-2-carbonyl]-2,3,4,5-tetrahydro-1H-3-benzazepine]"
2,100 to 1000,"CC1(N[C@H]2CCOC2)CCc2ccc(-c3cnc4[nH]nc(-c5ccc(S(=O)(=O)C6CC6)cc5)c4c3)cc2CC1 (stereo partly drawn) [Example 115, (3S)-N-(2-{3-[4-(Cyclopropanesulfonyl)phenyl]-1H-pyrazolo[3,4-b]pyridin-5-yl}-7-methyl-6,7,8,9-tetrahydro-5H-benzo[7]annulen-7-yl)oxolan-3-amine]"
3,> 1000,"C[C@@H]1CCCN1C1(C)CCc2ccc(-c3cnc4[nH]nc(-c5ccc(C(=O)N[C@@H]6CCOC6)cc5)c4c3)cc2CC1 (stereo partly drawn) [Example 99, 4-(5-{7-Methyl-7-[(2R)-2-methylpyrrolidin-1-yl]-6,7,8,9-tetrahydro-5H-benzo[7]annulen-2-yl}-1H-pyrazolo[3,4-b]pyridin-3-yl)-N-[(3R)-oxolan-3-yl]benzamide]"
4,> 1000,"C[C@@H]1CCCN1C1(C)CCc2ccc(-c3cnc4[nH]nc(-c5ccc(C(=O)N[C@H]6CCOC6)cc5)c4c3)cc2CC1 (stereo partly drawn) [Example 117, 4-(5-{7-Methyl-7-[(2R)-2-methylpyrrolidin-1-yl]-6,7,8,9-tetrahydro-5H-benzo[7]annulen-2-yl}-1H-pyrazolo[3,4-b]pyridin-3-yl)-N-[(3S)-oxolan-3-yl]benzamide]"
5,> 1000,"O=S(=O)(c1ccc(-c2n[nH]c3ncc(-c4ccc5c(c4)CCN(CC4CCOC4)CC5)cc23)cc1)C1CC1 (centres unmarked) [Example 27, 7-{3-[4-(Cyclopropanesulfonyl)phenyl]-1H-pyrazolo[3,4-b]pyridin-5-yl}-3-[(oxolan-3-yl)methyl]-2,3,4,5-tetrahydro-1H-3-benzazepine]"
6,> 1000,"C[C@@H]1CCCN1C1(C)CCc2ccc(-c3cnc4[nH]nc(-c5ccc(S(=O)(=O)C6CCCC6)cc5)c4c3)cc2CC1 (stereo partly drawn) [Example 45, 3-(4-(Cyclopentylsulfonyl)phenyl)-5-(7-methyl-7-((R)-2-methylpyrrolidin-1-yl)-6,7,8,9-tetrahydro-5H-benzo[7]annulen-2-yl)-1H-pyrazolo[3,4-b]pyridine]"
7,100 to 1000,"CC1(N2CCC[C@H]2CO)CCc2ccc(-c3cnc4[nH]nc(-c5ccc(S(=O)(=O)C6CC6)cc5)c4c3)cc2CC1 (stereo partly drawn) [Example 4, [(2S)-1-(2-{3-[4-(Cyclopropanesulfonyl)phenyl]-1H-pyrazolo[3,4-b]pyridin-5-yl}-7-methyl-6,7,8,9-tetrahydro-5H-benzo[7]annulen-7-yl)pyrrolidin-2-yl]methanol]"

# The remaining lines, values behind:
row,SMILES,IC50 [nM]
1,"Cc1cc(-c2n[nH]c3ncc(-c4ccc5c(c4)CC[C@@H](N4CCCC4)CC5)cc23)cc(C)c1C(N)=O [Example 49, 2,6-Dimethyl-4-{5-[(7S)-7-(pyrrolidin-1-yl)-6,7,8,9-tetrahydro-5H-benzo[7]annulen-2-yl]-1H-pyrazolo[3,4-b]pyridin-3-yl}benzamide]",100 to 1000
2,"CC(C)(O)c1ccc(-c2n[nH]c3ncc(-c4ccc5c(c4)CCN(C4CCCC4)CC5)cc23)cc1C(F)(F)F [Example 16, 2-{4-[5-(3-Cyclopentyl-2,3,4,5-tetrahydro-1H-3-benzazepin-7-yl)-1H-pyrazolo[3,4-b]pyridin-3-yl]-2-(trifluoromethyl)phenyl}propan-2-ol]",100 to 1000
3,"CC(C)(O)c1ccc(-c2n[nH]c3ncc(-c4ccc5c(n4)CCC(N4CCCC4)CC5)cc23)cc1Cl (centres unmarked) [Example 60, 2-(2-Chloro-4-{5-[7-(pyrrolidin-1-yl)-5H,6H,7H,8H,9H-cyclohepta[b]pyridin-2-yl]-1H-pyrazolo[3,4-b]pyridin-3-yl}phenyl)propan-2-ol]",100 to 1000
4,"CS(=O)(=O)c1ccc(-c2n[nH]c3ncc(-c4ccc5c(c4)CCN(C4CCCC4)CC5)cc23)cc1 [Example 30, 3-Cyclopentyl-7-(3-(4-(methylsulfonyl)phenyl)-1H-pyrazolo[3,4-b]pyridin-5-yl)-2,3,4,5-tetrahydro-1H-benzo[d]azepine]",100 to 1000
5,"C[C@@H]1CCCN1C1(C)CCc2ccc(-c3cnc4[nH]nc(-c5ccc(N6CCOCC6)cc5)c4c3)cc2CC1 (stereo partly drawn) [Example 107, 4-[4-(5-{7-Methyl-7-[(2R)-2-methylpyrrolidin-1-yl]-6,7,8,9-tetrahydro-5H-benzo[7]annulen-2-yl}-1H-pyrazolo[3,4-b]pyridin-3-yl)phenyl]morpholine]",> 1000
6,"C[C@H]1CCCN1C1CCc2ccc(-c3cnc4[nH]nc(-c5ccc(C(C)(C)O)c(Cl)c5)c4c3)cc2CC1 (stereo partly drawn) [Example 37, 2-(2-Chloro-4-(5-(7-((S)-2-methylpyrrolidin-1-yl)-6,7,8,9-tetrahydro-5H-benzo[7]annulen-2-yl)-1H-pyrazolo[3,4-b]pyridin-3-yl)phenyl)propan-2-ol]",100 to 1000
7,"C[C@@H]1CCCN1C1(C)CCc2ccc(-c3cnc4[nH]nc(-c5ccc(C(N)=O)c(F)c5)c4c3)cc2CC1 (stereo partly drawn) [Example 52, 2-Fluoro-4-(5-(7-methyl-7-((R)-2-methylpyrrolidin-1-yl)-6,7,8,9-tetrahydro-5H-benzo[7]annulen-2-yl)-1H-pyrazolo[3,4-b]pyridin-3-yl)benzamide]",100 to 1000
8,"CC(C)S(=O)(=O)c1ccc(-c2n[nH]c3ncc(-c4ccc5c(c4)CC[C@@H](N4CCCC4)CC5)cc23)cc1 [Example 42, (S)-3-(4-(Isopropylsulfonyl)phenyl)-5-(7-(pyrrolidin-1-yl)-6,7,8,9-tetrahydro-5H-benzo[7]annulen-2-yl)-1H-pyrazolo[3,4-b]pyridine]",100 to 1000
9,"C[C@H]1CCCN1C1CCc2ccc(-c3cnc4[nH]nc(-c5ccc(S(C)(=O)=O)cc5)c4c3)cc2CC1 (stereo partly drawn) [Example 36, 5-(7-((S)-2-Methylpyrrolidin-1-yl)-6,7,8,9-tetrahydro-5H-benzo[7]annulen-2-yl)-3-(4-(methylsulfonyl)phenyl)-1H-pyrazolo[3,4-b]pyridine]",100 to 1000
10,"CC(C)(O)c1ccc(-c2n[nH]c3ncc(-c4ccc5c(c4)CCN(C4CCCC4)CC5)cc23)cc1Cl [Example 12, 2-{2-Chloro-4-[5-(3-cyclopentyl-2,3,4,5-tetrahydro-1H-3-benzazepin-7-yl)-1H-pyrazolo[3,4-b]pyridin-3-yl]phenyl}propan-2-ol]",> 1000
11,"CC(C)(O)c1ccc(-c2n[nH]c3ncc(-c4ccc5c(c4)CCN(C4CCCC4)CC5)cc23)c(F)c1 [Example 17, 2-{4-[5-(3-Cyclopentyl-2,3,4,5-tetrahydro-1H-3-benzazepin-7-yl)-1H-pyrazolo[3,4-b]pyridin-3-yl]-3-fluorophenyl}propan-2-ol]",> 1000
12,"O=C1OCCN1c1ccc(-c2n[nH]c3ncc(-c4ccc5c(c4)CC[C@@H](N4C6COCC4C6)CC5)cc23)cc1 [Example 121, 3-(4-{5-[(7S)-7-{3-oxa-6-azabicyclo[3.1.1]heptan-6-yl}-6,7,8,9-tetrahydro-5H-benzo[7]annulen-2-yl]-2H-pyrazolo[3,4-b]pyridin-3-yl}phenyl)-1,3-oxazolidin-2-one]",> 1000
13,"CC(C)(O)c1ccc(-c2n[nH]c3ncc(-c4cc5c(cn4)CCC(N4CCCC4)CC5)cc23)cc1Cl (centres unmarked) [Example 59, 2-(2-Chloro-4-{5-[7-(pyrrolidin-1-yl)-5H,6H,7H,8H,9H-cyclohepta[c]pyridin-3-yl]-1H-pyrazolo[3,4-b]pyridin-3-yl}phenyl)propan-2-ol]",100 to 1000
